Source: US20130345205A1, “SUBSTITUTED BICYCLIC ARALKYL PYRAZOLE LACTAM ANALOGS AS ALLOSTERIC MODULATORS OF MGLUR5 RECEPTORS” (Vanderbilt University, priority 2012, published 2013)

How the values were obtained:
human mGluR5 = human mGluR5 (Homo sapiens, UniProt P41594); assay: Cell-based functional Ca2+ mobilization assay (FDSS), potentiation of glutamate EC20 response; conditions: H10H cell-line (HEK, recombinant human mGluR5); for Emax: glutamate EC20, maximum average response at a single concentration, percent of maximal glutamate response; for EC50: positive allosteric modulation in presence of glutamate EC20, concentration in mol/L
From the text: Human mGluR5a cDNA in pCMV6-XL6 mammalian expression plasmid was purchased from OriGene Technologies, Inc. (catalogue number SC326357) and subcloned into pcDNA3.1(−). Human embryonic kidney (HEK) 293A cells were then transfected with human mGluR5a pcDNA3.1(−) using LipofectAmine2000 (Invitrogen) and monoclones were selected and tested for functional response using a Ca^2+ mobilization assay. Monoclones were named for the species (“H” for human) plus the location on the plate (e.g. “10H”).
HEK cells transfected with the human mGluR5a receptor (H10H or H12H cell line) were plated at 15,000 cells/well in clear-bottomed poly-D-lysine-coated assay plates (BD Falcon) in glutamate-glutamine-free growth medium and incubated overnight at 37° C. and 5% CO2. Cell-lines used were either the H10H or H12H cell-lines expressing the human mGluR5 receptor. The following day, the growth medium was removed and the cells were washed with assay buffer containing 1× Hank's balanced salt solution (Invitrogen, Carlsbad, Calif.), 20 mM HEPES, 2.5 mM probenecid, pH 7.4 and left with 20 μL of this reagent. Following this step, the cells were loaded with calcium indicator dye, fluo-4 AM, to a final concentration of 2 μM and incubated for 40-45 min at 37° C. The dye solution was removed and replaced with assay buffer. Cell plates were held for 10-15 min at room temperature and were then loaded into the Functional Drug Screening System 6000 (FDSS 6000, Hamamatsu, Japan).
After establishment of a fluorescence baseline for about 3 seconds, the compounds of the present invention were added to the cells, and the response in cells was measured. 2.3 minutes later an EC20 concentration of the mGluR5 receptor agonist glutamate was added to the cells, and the response of the cells was measured for about 1.7 minutes. All test compounds were dissolved and diluted to a concentration of 10 mM in 100% DMSO and then serially diluted into assay buffer for a 2× stock solution in 0.6% DMSO; stock compounds were then added to the assay for a final DMSO concentration of 0.3% after the first addition to the assay well. Calcium fluorescence measures were recorded as fold over basal fluorescence; raw data was then normalized to the maximal response to glutamate. Potentiation of the agonist response of the mGluR5 receptor in the present invention was observed as an increase in response to submaximal concentrations of glutamate in the presence of compound compared to the response to glutamate in the absence of compound.
The concentration-response curves of compounds of the present invention, obtained in the presence of EC20 of mGluR5 receptor agonist glutamate to determine positive allosteric modulation, were generated using Microsoft Excel with IDBS XLFit add-ins. The raw data file containing all time points was used as the data source in the analysis template. This was saved by the FDSS as a tab-delimited text file. Data were normalized using a static ratio function (F/F0) for each measurement of the total 350 values per well divided by each well's initial value. Data was then reduced as to peak amplitudes (Max-Initial Min) using a time range that starts approximately 1 second after the glutamate EC20 addition and continues for approximately 40 seconds. This is sufficient time to capture the peak amplitude of the cellular Calcium response. Individual amplitudes were expressed as % EMax by multiplying each amplitude by 100 and then dividing the product by the mean of the amplitudes derived from the glutamate ECMax-treated wells. pEC50 values for test compounds were generated by fitting the normalized values versus the log of the test compound concentration (in mol/L) using a 4 parameter logistic equation where none of the parameters were fixed. Each of the three values collected at each concentration of test compound were weighted evenly. Individual values falling outside the 95% prediction limits of the curve fit were automatically excluded from the fit. […]

Sequence of human mGluR5 (P41594 21-1180 isoform P41594-2 limits assumed): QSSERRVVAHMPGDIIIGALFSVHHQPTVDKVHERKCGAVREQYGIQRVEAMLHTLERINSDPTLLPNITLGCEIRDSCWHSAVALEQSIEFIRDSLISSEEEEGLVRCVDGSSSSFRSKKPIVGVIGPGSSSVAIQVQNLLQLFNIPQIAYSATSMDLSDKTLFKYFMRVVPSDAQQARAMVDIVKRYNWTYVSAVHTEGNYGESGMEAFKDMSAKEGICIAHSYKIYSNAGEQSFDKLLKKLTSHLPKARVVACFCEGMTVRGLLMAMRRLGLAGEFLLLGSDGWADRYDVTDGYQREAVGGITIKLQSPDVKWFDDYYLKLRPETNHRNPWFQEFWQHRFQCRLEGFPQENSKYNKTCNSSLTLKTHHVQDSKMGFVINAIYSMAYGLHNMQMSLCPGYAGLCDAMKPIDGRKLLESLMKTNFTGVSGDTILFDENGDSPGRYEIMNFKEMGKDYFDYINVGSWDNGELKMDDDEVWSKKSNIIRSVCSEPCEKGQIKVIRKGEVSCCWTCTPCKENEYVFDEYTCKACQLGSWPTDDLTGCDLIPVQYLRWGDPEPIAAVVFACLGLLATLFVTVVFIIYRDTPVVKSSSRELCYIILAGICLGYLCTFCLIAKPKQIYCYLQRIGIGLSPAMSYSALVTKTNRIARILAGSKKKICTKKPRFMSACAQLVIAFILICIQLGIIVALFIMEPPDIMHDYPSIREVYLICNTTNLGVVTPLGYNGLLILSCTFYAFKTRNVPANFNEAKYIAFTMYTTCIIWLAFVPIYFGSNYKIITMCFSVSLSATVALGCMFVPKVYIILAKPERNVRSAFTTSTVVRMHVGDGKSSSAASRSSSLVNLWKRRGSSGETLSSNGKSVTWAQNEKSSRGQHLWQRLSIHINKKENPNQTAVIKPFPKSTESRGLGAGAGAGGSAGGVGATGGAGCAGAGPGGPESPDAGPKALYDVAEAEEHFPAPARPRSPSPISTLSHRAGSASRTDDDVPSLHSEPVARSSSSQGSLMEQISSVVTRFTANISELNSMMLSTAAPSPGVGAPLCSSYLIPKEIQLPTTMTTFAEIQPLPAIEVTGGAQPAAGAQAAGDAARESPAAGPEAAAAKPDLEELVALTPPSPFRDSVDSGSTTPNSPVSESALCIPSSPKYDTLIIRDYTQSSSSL

| melting point [°C] | Emax (human mGluR5) [%] | EC50 (human mGluR5) [µM] | Structure (SMILES) |
| --- | --- | --- | --- |
| 117.1 | 30 | > 10 | COc1ccc(CN2CCn3nc(COc4ccnc(C)c4)cc3C2=O)cc1 [Example B33] |
| 164.8 | 17 | > 31.6 | COc1ccc(CN2CCn3nc(COc4cc(C)nc(C)c4)cc3C2=O)cc1 [Example B35] |
| 82.5 | 65 | 0.107 | COc1cccc(CN2CCn3nc(COc4ccccc4)cc3C2=O)c1 [Example B36] |
| 112.6 | 66 | 0.178 | CC1(C)CN(Cc2ccccc2)C(=O)c2cc(COc3ccccc3)nn21 [Example B45] |
| 111.2 | 75 | 0.0263 | O=C1c2cc(COc3ccccc3)nn2CCN1Cc1ccccc1Cl [Example B46] |
| 218 | 76 | 0.055 | O=C1c2cc(COc3ccccc3)nn2CCN1Cc1cccc(Cl)c1 [Example B47] |
| 169 | 65 | 0.155 | O=C1c2cc(COc3ccccc3)nn2CCN1Cc1ccc(Cl)cc1 [Example B48] |
| 75.4 | 39 | 0.759 | Cc1ccnc(OCc2cc3n(n2)CCN(Cc2ccccc2)C3=O)c1 [Example B62] |
| 189.6 | 70 | 0.0339 | Cc1ccccc1CN1CCn2nc(COc3ccccc3)cc2C1=O [Example B63] |
| 95.3 | 61 | 0.0479 | Cc1cccc(CN2CCn3nc(COc4ccccc4)cc3C2=O)c1 [Example B64] |
| 164.9 | 75 | 0.145 | Cc1ccc(CN2CCn3nc(COc4ccccc4)cc3C2=O)cc1 [Example B65] |
| 132.1 | 64 | 0.204 | COc1cc(CN2CCn3nc(COc4ccccc4)cc3C2=O)ccc1F [Example B66] |
| 87.6 | 68 | 0.195 | COc1cccc(F)c1CN1CCn2nc(COc3ccccc3)cc2C1=O [Example B67] |
| 116 | 65.5 | 0.0178 | COc1c(Cl)cccc1CN1CCn2nc(COc3ccccc3)cc2C1=O [Example B68] |
| 104.2 | 69 | 0.209 | O=C1c2cc(COc3ccccc3F)nn2CCN1Cc1ccccc1 [Example B69] |
| 96 | 73 | 0.525 | COc1cncc(CN2CCn3nc(COc4ccccc4)cc3C2=O)n1 [Example B71] |
| 117.4 | 81 | 0.229 | N#Cc1cccc(CN2CCn3nc(COc4ccccc4)cc3C2=O)c1 [Example B72] |
| 71.8 | 69 | 0.0955 | CN(C)c1cccc(CN2CCn3nc(COc4ccccc4)cc3C2=O)n1 [Example B74] |
| 132.4 | 71 | 1.15 | COc1cccnc1CN1CCn2nc(COc3ccccc3)cc2C1=O [Example B75] |
| 120.4 | 66 | 2.29 | Cc1cncc(CN2CCn3nc(COc4ccccc4)cc3C2=O)n1 [Example B77] |

| melting point [°C] | Emax (human mGluR5) [%] | EC50 (human mGluR5) [µM] | Structure (SMILES) |
| --- | --- | --- | --- |
| 114.2 | 70 | 0.295 | Cc1nc(CN2CCn3nc(COc4ccccc4)cc3C2=O)ccc1F [Example B78] |
| 129.8 | 75.5 | 0.355 | Cc1cc(CN2CCn3nc(COc4ccccc4)cc3C2=O)ncc1F [Example B82] |
| 117.2 | 77 | 0.417 | O=C1c2cc(COc3ccccc3)nn2CCN1Cc1ncccc1F [Example B83] |
| > 300 | 70 | 1.74 | Cc1nccc(CN2CCn3nc(COc4ccccc4)cc3C2=O)n1 [Example B84] |
| 147.4 | 69.5 | 0.447 | Cc1cccc(CN2CCn3nc(COc4ccc(F)cc4)cc3C2=O)n1 [Example B85] |
| 107.6 | 71.5 | 0.302 | Cc1cccc(CN2C(=O)c3cc(COc4ccccc4)nn3C[C@H]2C)n1 [Example B86] |
| 166.4 | 80 | 0.275 | C[C@@H]1Cn2nc(COc3ccccc3)cc2C(=O)N1Cc1ncccc1Cl [Example B87] |
| 268.8 | 71 | 0.0933 | O=C1c2cc(COc3ccc(F)cc3)nn2CCN1Cc1ncccc1Cl [Example B88] |
| 187.5 | 66 | 0.955 | Cc1cc(CN2CCn3nc(COc4ccccc4)cc3C2=O)no1 [Example B89] |
| 105.8 | 69 | 0.0676 | O=C1c2cc(COc3ccccc3)nn2CCN1Cc1nc2ccccc2s1 [Example B91] |
| 145.4 | 65 | 0.282 | O=C1c2cc(COc3ccccc3)nn2CCN1Cc1nc2ccccc2o1 [Example B92] |
| 131.3 | 73 | 0.0257 | O=C1c2cc(COc3ccccc3)nn2CCN1Cc1cccc2cccnc12 [Example B93] |
| 137.6 | 76 | 0.123 | O=C1c2cc(COc3ccccc3)nn2CCN1Cc1nccc2ccccc12 [Example B94] |
| 115.4 | 75 | 0.372 | O=C1c2cc(COc3ccccc3)nn2CCN1Cc1ccc(C(F)(F)F)nc1 [Example B95] |
| 137.5 | 67 | 1 | Cc1ncccc1CN1CCn2nc(COc3ccccc3)cc2C1=O [Example B96] |
| 121.9 | 65 | 0.417 | Cc1nc(CN2CCn3nc(COc4ccccc4)cc3C2=O)cs1 [Example B97] |
| > 300 | 72 | > 10 | Cn1c(CN2CCn3nc(COc4ccccc4)cc3C2=O)nc2ccccc21 [Example B98] |
| 95 | 68 | 1.29 | COc1ccc(CN2CCn3nc(COc4ccccn4)cc3C2=O)cc1 [Example B101] |
| 154.1 | 63 | 0.324 | COc1nccnc1CN1CCn2nc(COc3cccc(F)c3)cc2C1=O [Example B103] |
| > 300 | 65 | 0.55 | O=C1c2cc(COc3cccc(F)c3)nn2CCN1Cc1ncccc1F [Example B104] |
